This note sets out measurements from patent US20070098787A1, “Composition for preventing and treating varicose veins of lower extremities” (MOCHIDA PHARMACEUTICAL CO., LTD., priority 2003, published 2007).

This data set relates to varicose veins of lower extremities. The experiment in a line: Case report: patient with varicose veins of lower extremities, Dorner replaced with EPADEL S. Format: in vivo, human. The conditions noted are these: person. As for the experimental part:
A person diagnosed with hypertension, diabetes, hyperlipidemia, and varicose veins of lower extremities (serious conditions with multiple dilatations, winding varices, and skin pigmentation in both legs) was administered with Dorner (trade name; manufactured by Toray Industries, Inc.; generic name, beraprost sodium; a therapeutic agent for chronic artery occlusion) in expectation of therapeutic effect on varicose veins of lower extremities together with Adalat L (trade name; manufactured by Bayer; generic name, nifedipine; coronary vasodilator), Basen (trade name; manufactured by Takeda Pharmaceutical Company Limited; generic name, voglibose; α-glucosidase inhibitor), Lochol (trade name; manufactured by Ciba Geigy Japan Ltd.; generic name, fluvastatin sodium; HMG-CoA reductase inhibitor), and NU-LOTAN (trade name; manufactured by Banyu Pharmaceutical Co., Ltd.; generic name, losartan potassium; angiotensin II receptor antagonist). […] Accordingly, Dorner was replaced with EPADEL S (trade name; manufactured by Mochida Pharmaceutical Co., Ltd.; generic name, ethyl eicosapentate (EPA-E)) at a dose of 600 mg×3 packets per day. […] The skin pigmentation also disappeared. […] No therapeutic method was changed except the change of the drug from Dorner to EPADEL S.

Setting [1] is: 600 mg×3 packets per day, after about 1 month, Dorner replaced, other medication unchanged.

Each structure is given as a SMILES string.

For the molecule `CC#CCC(C)[C@H](O)/C=C/[C@@H]1[C@H]2c3cccc(CCCC(=O)O)c3O[C@H]2C[C@H]1O` (mixture of isomers) [Dorner, beraprost sodium], under “serious conditions in both legs, Dorner given together with Adalat L, Basen, Lochol and NU-LOTAN, after the medication”, the “improvement in the varicose veins of lower extremities” value is on record as “No improvement”.

For the molecule `CC/C=C\C/C=C\C/C=C\C/C=C\C/C=C\CCCC(=O)OCC` [EPADEL S, ethyl eicosapentate], the “adverse event presumably caused by the drug” value (600 mg×3 packets per day, about 1 month) is “No adverse event”. Further, the skin pigmentation entry (600 mg×3 packets per day, after about 1 month) is listed as “disappeared”. For the same molecule, under setting [1], the “varicose veins in the left leg” value was “substantial improvement” and the “varicose veins in the right leg” value is “substantial disappearance”.
